The subject of one data set is Aβ42. Description: In vivo efficacy: brain soluble Aβ42 in non-transgenic rodents (MSD electrochemiluminescence multiplex). The conditions noted are these: Mus musculus, po, 4 h, dose 30 mg/kg oral dosing, brain soluble fraction, animals sacrificed after 4 h, untreated animals (Ctrl) set at 100, read-out: Aβ42 (% vs Ctrl)_Mean. Also noted: species or system mouse. The source says:
(§1) To determine whether acute administration of an Aβ42 lowering agent would reduce Aβ42 levels in vivo, non-transgenic rodents, e.g. mice or rats were used. Animals treated with the Aβ42 lowering agent were examined and compared to those untreated or treated with vehicle and brain levels of soluble Aβ42, Aβ40, Aβ38, and Aβ37 were quantitated by Meso Scale Discovery's (MSD) electrochemiluminescence detection technology. Treatment periods varied from hours (h) to days and were adjusted based on the results of the Aβ42 lowering once a time course of onset of effect could be established.
(§2) A typical protocol for measuring Aβ42 lowering in vivo is shown but it is only one of many variations that could be used to optimize the levels of detectable Aβ. For example, Aβ42 lowering compounds were formulated in 20% of Captisol® (a sulfo-butyl ether of β-cyclodextrin) in water or 20% hydroxypropyl βcyclodextrin. The Aβ42 lowering agents were administered as a single oral dose or by any acceptable route of administration to overnight fasted animals. After 4 h, the animals were sacrificed and Aβ42 levels were analysed.
(§3) Blood was collected by decapitation and exsanguinations in EDTA-treated collection tubes. Blood was centrifuged at 1900 g for 10 minutes (min) at 4° C. and the plasma recovered and flash frozen for later analysis. The brain was removed from the cranium and hindbrain. The cerebellum was removed and the left and right hemisphere were separated. The left hemisphere was stored at −18° C. for quantitative analysis of test compound levels. The right hemisphere was rinsed with phosphate-buffered saline (PBS) buffer and immediately frozen on dry ice and stored at −80° C. until homogenization for biochemical assays.
(§4) Mouse brains from non-transgenic animals were resuspended in 8 volumes of 0.4% DEA (diethylamine)/50 mM NaCl containing protease inhibitors (Roche-11873580001 or 04693159001) per gram of tissue, e.g. for 0.158 g brain, add 1.264 ml of 0.4% DEA. All samples were homogenized in the FastPrep-24 system (MP Biomedicals) using lysing matrix D (MPBio #6913-100) at 6 m/s for 20 seconds. Homogenates were centrifuged at 20800×g for 5 min and supernatants collected. Supernatants were centrifuged at 221.300×g for 50 min. The resulting high speed supernatants were then transferred to fresh eppendorf tubes. Nine parts of supernatant were neutralized with 1 part 0.5 M Tris-HCl pH 6.8 and used to quantify Aβ.
(§5) To quantify the amount of Aβ42, Aβ40, Aβ38, and Aβ37 in the soluble fraction of the brain homogenates, simultaneous specific detection of Aβ42, Aβ40, Aβ38, and Aβ37 was performed using MSD's electro-chemiluminescence multiplex detection technology. In this assay purified monoclonal antibodies specific for Abeta37 (JRD/Aβ37/3), Abeta38 (J&JPRD/Aβ38/5), Abeta40 (JRF/cAβ40/28), and Abeta42 (JRF/cAβ42/26) were coated on MSD 4-plex plates. Briefly, the standards (a dilution of synthetic Aβ42, Aβ40, Aβ38, and Aβ37) were prepared in 1.5 ml Eppendorf tube in Ultraculture, with final concentrations ranging from 10000 to 0.3 pg/m. The samples and standards were co-incubated with Sulfo-tag labelled JRF/rAβ/2 antibody to the N-terminus of Aβ as detector antibody. 50 μl of conjugate/sample or conjugate/standards mixtures were then added to the antibody-coated plate. The plate was allowed to incubate overnight at 4° C. in order to allow formation of the antibody-amyloid complex. Following this incubation and subsequent wash steps the assay was finished by adding read buffer according to the manufacturer's instructions (Meso Scale Discovery, Gaitherburg, Md.).
(§6) The SULFO-TAG emits light upon electrochemical stimulation initiated at the electrode. MSD Sector instrument SI6000 was used for signal read-out.
In this model a Aβ42 lowering compared to untreated animals would be advantageous, in particular a Aβ42 lowering with at least 10%, more in particular a Aβ42 lowering with at least 20%. […]

Another data set relates to Aβ40. Description: In vivo efficacy: brain soluble Aβ40 in non-transgenic rodents (MSD electrochemiluminescence multiplex). Also noted: species or system mouse. The following applies: Mus musculus, po, 4 h, dose 30 mg/kg oral dosing, brain soluble fraction, animals sacrificed after 4 h, untreated animals (Ctrl) set at 100, read-out: Aβ40 (% vs Ctrl)_Mean.
From the text: as §1, §2, §3, §4, §5, §6
The results are shown in Table 5 (dose 30 mg/kg oral dosing) (value for untreated animals as control (Ctrl) was set at 100): […]

The test system of another data set is Aβ38. Description: In vivo efficacy: brain soluble Aβ38 in non-transgenic rodents (MSD electrochemiluminescence multiplex). Details: species or system mouse. The conditions noted are these: Mus musculus, po, 4 h, dose 30 mg/kg oral dosing, brain soluble fraction, animals sacrificed after 4 h, untreated animals (Ctrl) set at 100, read-out: Aβ38 (% vs Ctrl)_Mean.
From the text: To determine whether acute administration of an Aβ38 increasing agents would increase Aβ38 levels in vivo, non-transgenic rodents, e.g. mice or rats were used. Animals treated with the Aβ38 increasing agents were examined and compared to those untreated or treated with vehicle and brain levels of soluble Aβ42, Aβ40, Aβ38, and Aβ37 were quantitated by MSD electrochemiluminescence detection technology. Treatment periods varied from hours (h) to days and were adjusted based on the results of the Aβ38 increase once a time course of onset of effect could be established.
A typical protocol for measuring Aβ38 increase in vivo is shown but it is only one of many variations that could be used to optimize the levels of detectable Aβ. For example, Aβ38 increasing agents were formulated in 20% of Captisol® (a sulfobutyl ether of β-cyclodextrin) in water or 20% hydroxypropyl βcyclodextrin. The Aβ38 increasing agents were administered as a single oral dose or by any acceptable route of administration to overnight fasted animals. After 4 h, the animals were sacrificed and Aβ38 levels were analysed.
as §3, §4
as §5, with “(MesoScale” for “(Meso Scale”
as §6
In this model a Aβ38 increase compared to untreated animals would be advantageous, in particular a Aβ38 increase with at least 10%, more in particular a Aβ38 increase with at least 20%. […]

Data set [1] has as its target T1, γ-secretase (Homo sapiens, UniProt P49768).
T1 construct: endogenous in cells; host or cells: SKNBE2 human neuroblastoma cells (carrying hAPP 695 wild type as substrate)
In words: Screening for γ-secretase-modulating activity: Aβ42 in supernatant of SKNBE2 cells carrying hAPP 695 wild type (Alphalisa). The format is cell-based. The following applies: SKNBE2 human neuroblastoma cells carrying hAPP 695 wild type, overnight incubation, Aβ42 in cell supernatant. An outline of the steps:
(§7)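 SKNBE2 neuroblastoma cells expressing wild-type hAPP 695 plated at 10^4 cells/well in Ultraculture with test compound, incubated overnight at 37° C. Aβ42 (C-terminal/N-terminal antibody pair) and Aβtotal (N-terminal/4G8 pair) in supernatant quantified by AlphaLISA. IC50 from 4-parameter fit of percent of compound-free control.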

Data set [2] has as its target T1, γ-secretase. Description: Screening for γ-secretase-modulating activity: Aβtotal in supernatant of SKNBE2 cells carrying hAPP 695 wild type (Alphalisa). The format is cell-based. The conditions noted are these: SKNBE2 human neuroblastoma cells carrying hAPP 695 wild type, overnight incubation, Aβtotal in cell supernatant. An outline of the steps: as §7

Consider `Cc1cn(-c2ccc3n(c2=O)CC(C)N(Cc2c[nH]c4cc(C(F)(F)F)ccc24)C3=O)cn1` (stereo not drawn) [compound 203], for which the figures for the response vs control in vivo at 30 mg/kg in the data set on Aβ42, in the data set with Aβ40 and with Aβ38 were 67%, 137% and 133%, respectively.
With `Cc1cn(-c2ccc3n(c2=O)C[C@@H](C)N(Cc2cccc(N4CCCCC4)c2)C3=O)cn1` [compound 84], the melting point came to 108.2 °C. At γ-secretase [1], this molecule gave an IC50 of 230 nM. At γ-secretase [2], this molecule came in with an IC50 of over 10000 nM.
Molecule `COc1ccc(Cl)cc1CCN1C(=O)c2ccc(-n3cnc(C)c3)c(=O)n2C[C@H]1C` [compound 233] gave a melting point of 193 °C. This molecule yielded an IC50 against γ-secretase [1] of 260 nM. The molecule further had an IC50 on γ-secretase [2] of over 10000 nM.
The like results for `Cc1cn(-c2ccc3n(c2=O)CCN(Cc2ccc4c(c2)OCCCO4)C3=O)cn1` [compound 93] were, in that order, 192.2 °C, 6760 nM and over 10000 nM.
The like results for `CCn1cc(C(C)N2C(=O)c3ccc(-n4cnc(C)c4)c(=O)n3CC2C)c2cc(Cl)cc(F)c21` (single isomer, unassigned) [compound 221] were, in that order, 194 °C, 5 nM and 790 nM.
The like results for `COc1cccc(CN2CCn3c(ccc(-n4cnc(C)n4)c3=O)C2=O)c1` [compound 119] were, in that order, 151.2 °C, over 10000 nM and over 10000 nM.
With `Cc1cn(-c2ccc3n(c2=O)CCN(C2CC2c2ccc(Cl)cc2)C3=O)cn1` (stereo not drawn) [compound 30], the melting point was determined as 168.5 °C. This molecule also had a 50% inhibitory concentration (IC50) against γ-secretase [1] of 2040 nM. The molecule further showed an IC50 at γ-secretase [2] of over 10000 nM.
The like results for `Cc1cn(-c2ccc3n(c2=O)C[C@@H](C)N(CC2(c4ccc(Cl)cc4)CC2)C3=O)cn1` [compound 28] were, in that order, 157.4 °C, 280 nM and over 10000 nM.

Values taken from US20150141411A1, “SUBSTITUTED 3,4-DIHYDRO-2H-PYRIDO[1,2-A]PYRAZINE-1,6-DIONE DERIVATIVES USEFUL FOR THE TREATMENT OF (INTER ALIA) ALZHEIMER'S DISEASE” (Janssen Pharmaceuticals, Inc., priority 2012, published 2015).
